Data on two compounds can be found in patent US20060100173A1, “Ophthalmic solution” (priority 2004, published 2006).

Where a name gives a salt, the structure may show the parent alone.

This assay relates to five organisms. As to the kind of experiment: Antimicrobial activity, sum of log drops of five organisms. The conditions noted are these: HA 1.7M relative to non-HA control and/or lower molecular weight HA compositions; Tris buffered. It counts as cell-based.

With `CCCCC(CC)CNC(=N)NC(=N)NCCCCCCNC(=N)NC(=N)NCC(CC)CCCC` (centres unmarked) [ALX, Alexidine Dihydrochloride], the “reduction of the sum of the kill level by HA of MW 1.7M” value is recorded as “about 2 log”. “poly[hexamethylene biguanide hydrochloride] [PHMB]”: the “reduction of the sum of the kill level by HA of MW 1.7M” value is listed as “about 4 log”.
